# Patent US10155038B2, “Cells prepared by transient transfection and methods of use thereof” (Yale University, priority 2007, dated 2018)
# Tests used:
# EML cells = assay: GFP transfection of EML cells by nucleofection, FACS; format: cell-based, mouse; details: FIG. 2B; for GFP expression when ATP in the E-PAP reaction was replaced by ATP analog: without tail extension
# Protocol: Electroporation was performed using an Amaxa NUCLEOFECTOR™-II (Amaxa Biosystems, Cologne, Germany) in accordance with manufacturer recommendations. Jurkat and B cell lines were transfected using NUCLEOFECTOR™-II solution V and the set of recommended regimes for electroporation. EML cells were transfected using solutions V, T and R and different regimes of electroporation. T lymphocytes were transfected using T cell NUCLEOFECTOR™-II solution and different regimes of electroporation. Alternative methods of nucleic acids delivery were also used: cationic liposome mediated transfection was performed using LIPOFECTIN® or LIPOFECTAMIN® (Invitrogen). Electroporation was also performed with the ECM 830 (BTX) (Harvard Instruments, Boston, Mass.) or the Gene Pulser II (BioRad, Denver, Colo.), Multiporator (Eppendorf, Hamburg Germany). All procedures were performed as directed by the manufacturers. pmaxGFP plasmid DNA (Amaxa Biosystems) was used as the DNA control. The efficiency of transfection (ET) was determined 18h after transfection by fluorescence activated cell sorting (FACS). In some experiments transfectants were further analyzed each 24h until GFP could not longer be detected. Cell viability was determined by trypan blue dye exclusion.
# Flow cytometry was performed using the fluorescent activated cell sorting (FACS®) assay. Flow cytometry was performed on cell subpopulations was performed at the Yale Cancer Center Flow Cytometry Shared Resource, using a FACS® Calibur flow cytometer (Becton-Dickinson, San Jose, Calif.) equipped with 488 nm laser and the standard filter setup. Fluorescence signals were collected on a logarithmic scale. A minimum of ten thousand cells were interrogated for each sample. Analysis of data was performed using FlowJo software (Tree Star, Inc., San Carlos, Calif.). The expression efficiency was calculated as the difference between the geometric mean of fluorescence of the transfectants and control (mock transfected) cells. […]
# [1] = tested on: mantle cell lymphoma (MCL) cell lines; assay: Viability of MCL cell lines, CELLTITER-GLO assay; format: cell-based
# Text: FIG. 13 is a line graph showing viability (percent) of various mantle cell lymphoma (MCL) cancer cell lines (SP-53, SP-49, Granta, JEKO, and TVM) following treatment with various concentrations (M) of the BH3 mimetic ABT-737.
# FIGS. 14A-14D are plots showing viability (Relative Light Units) following a CELLTITER-GLO® assay of various mantle cell lymphoma (MCL) cancer cell lines: JVM-2 (FIG. 14A), Granta-519 (FIG. 14B), JEKO-1 (FIG. 14C), and SP-53 (FIG. 14D) following treatment with various concentrations (M) of the BH3 mimetic BIM SAHB (-▪-), or a BIM SAHB R153D variant control (-●-).
# A panel of mantle cell lymphoma (MCL) cell lines were exposed to BIM SAHBA, BIM SAHBA(R153D), or vehicle alone for 24 hours in OptiMEM medium followed by viability testing using the CELLTITER-GLO® (Promega) assay.
# GFP mRNA = assay: siRNA inhibition of GFP mRNA expression in Jurkat cells; format: cell-based; details: Jurkat cells with EGFP mRNA; the day after transfection
# Text: Jurkat T cells were electroporated with different amount of FITC labeled siRNA. The condition and the kinetics of siRNA transfection were identical to mRNA transfection.
# metastatic melanoma = details: cited from earlier work
# caspase 3/7 = assay: Caspase 3/7 activation in MCL cell lines; format: cell-based; details: JVM-2, Granta-519, JEKO-1, SP-53
# Text: FIGS. 15A-15D are plots showing caspase 3/7 activation (Relative Light Units) in various mantle cell lymphoma (MCL) cancer cell lines: JVM-2 (FIG. 15A), Granta-519 (FIG. 15B), JEKO-1 (FIG. 15C), and SP-53 (FIG. 15D) following treatment with various concentrations (μM) of the BH3 mimetic SAHB (right hand bar in each pair), or a SAHB R153D variant control (left hand bar in each pair).
molecule,measurement,setting,value
Nc1ncnc2c1nnn2[C@@H]1O[C@H](CO)[C@@H](O)[C@H]1O [8-azaadenosine],GFP expression when ATP in the E-PAP reaction was replaced by ATP analog,EML cells,increased
CN(C)CC[C@H](CSc1ccccc1)Nc1ccc(S(=O)(=O)NC(=O)c2ccc(N3CCN(Cc4ccccc4-c4ccc(Cl)cc4)CC3)cc2)cc1[N+](=O)[O-] [ABT-737],effect on viability,"[1]; FIG. 13, SP-53, SP-49, Granta, JEKO, JVM",reduced viability in a subset of the MCL cell lines
"CO[C@H]1[C@@H](O)[C@H](n2c[n+](C)c3c(=O)[nH]c(N)nc32)O[C@@H]1COP(=O)(O)OP(=O)(O)OP(=O)(O)OC[C@H]1O[C@@H](n2cnc3c(=O)[nH]c(N)nc32)[C@H](O)[C@@H]1O [ARCA, 3′-O-Methyl-m7G[5′]ppp[5′]G]",increase of GFP expression compared to the standard capping procedure,EML cells; GFP mRNA capped with ARCA,two-fold increase
Nc1ncnc2c1ncn2[C@@H]1O[C@H](CO)C[C@H]1O [cordycepin],GFP expression when ATP in the E-PAP reaction was replaced by ATP analog,EML cells,increased
anti-GFP siRNA: anti-GFP siRNA (GCAAGCUGACCCUGAAGUUCAU) (chemistry not given here),inhibition of GFP mRNA expression,GFP mRNA,80%
nivolumab: anti-PD-1 antibody,overall response rate,metastatic melanoma,30-40%
synthetic peptide modeled on the BIM BH3 death domain with all-hydrocarbon crosslink; IWIAQELRXIGDXFNAYYARR (SEQ ID NO:1) [BIM SAHBA],caspase 3/7 activation,caspase 3/7,correlated with caspase 3/7 activation
same,"EC50s, impaired viability","[1]; 24 hours, OptiMEM medium, panel of MCL cell lines",low micromolar range
